# Reference: patent US7109245B2, “Vasoconstrictor cannabinoid analogs” (priority 2001, dated 2006)
# “Also recorded” adds a separate entry of the source. Like-named read-outs stand apart in the source and are kept apart here.
# Tests used:
# rats and mice = details: in vivo; cited from earlier work
# mesenteric arteries [1] = details: cited from earlier work; for dilation of isolated mesenteric arteries: normal rats and mice, CB1 knockout and CB1/CB2 double knockout mice
# LPS-induced hypotension = LPS-induced hypotension in anesthetized mice; type: in vivo, mouse
# Text: Endotoxin was used to induce hypotension in control mice as well as in mice deficient in CB1 or both CB1 and CB2 receptors.
# [2] = tested on: normal rats and mice, CB1 knockout mice, CB1/CB2 double knockout mice; details: cited from earlier work
# [3] = tested on: Rat isolated mesenteric branch arteries; assay: Vasorelaxation of rat isolated mesenteric branch arteries precontracted with phenylephrine, wire myograph
# Protocol: Arteries were mounted in a wire myograph, and precontracted with phenylephrine. Relaxation is expressed as % of the phenylephrine-induced vasoconstrictor tone, 0% representing maximal relaxation.
# Rat isolated mesenteric branch arteries (˜200 μm in diameter) were precontracted with phenylephrine and measurements were recorded with a wire myograph.
# ICR mice = assay: Blood pressure of pentobarbital-anesthetized ICR mice (femoral artery cannula); type: in vivo, mouse
# Text: By way of example, ICR mice were anesthetized with pentobarbital, and polyethylene cannulae were inserted into the femoral artery and vein for monitoring blood pressure and injecting drugs, respectively. Blood pressure was monitored directly by connecting the arterial cannula to a pressure transducer and physiograph.
# [4] = tested on: mesenteric branch arteries isolated from wild-type and CB1 receptor deficient mice; assay: Calcium-induced relaxation of mouse isolated mesenteric branch arteries precontracted with norepinephrine; details: 10 μM O-1918
# [5] = molecular target: brain cannabinoid (CB1) receptor (Homo sapiens, UniProt P21554); details: cited from earlier work
# Sequence of brain cannabinoid (CB1) receptor (P21554 whole entry, species assumed): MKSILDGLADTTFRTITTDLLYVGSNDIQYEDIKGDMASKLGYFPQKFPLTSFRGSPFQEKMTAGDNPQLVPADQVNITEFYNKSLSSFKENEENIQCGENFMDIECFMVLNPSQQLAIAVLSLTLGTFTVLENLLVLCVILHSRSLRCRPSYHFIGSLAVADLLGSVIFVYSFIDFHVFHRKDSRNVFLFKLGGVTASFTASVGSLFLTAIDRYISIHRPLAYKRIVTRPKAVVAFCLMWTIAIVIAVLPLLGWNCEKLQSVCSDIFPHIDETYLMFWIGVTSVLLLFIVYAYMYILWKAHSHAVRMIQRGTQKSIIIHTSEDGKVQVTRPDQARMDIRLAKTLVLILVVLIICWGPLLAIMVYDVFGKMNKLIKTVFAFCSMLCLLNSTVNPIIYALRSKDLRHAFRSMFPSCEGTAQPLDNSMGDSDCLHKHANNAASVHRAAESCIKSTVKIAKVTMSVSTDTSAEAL
# mesenteric arteries [6] = assay: Mesenteric vasodilator response
smiles,measurement,setting,value
C=C(C)[C@@H]1CCC(C)=C[C@H]1c1c(O)cc(CCCCC)cc1O [cannabidiol],neurobehavioral effects,rats and mice,devoid of neurobehavioral effects
same,antagonism of vasodilator effect of Abn-cbd,mesenteric arteries [1]; mesenteric,able to antagonize the vasodilator effect of Abn-cbd
same,dilation of isolated mesenteric arteries,mesenteric arteries [1],does not elicit mesenteric vasodilation
Cc1c(C(=O)NN2CCCCC2)nn(-c2ccc(Cl)cc2Cl)c1-c1ccc(Cl)cc1 [SR141716A],inhibition of LPS-induced hypotension,"LPS-induced hypotension; pretreatment 3 mg/kg SR141716A, wild-type mice, CB1 deficient and CB1/CB2 deficient mice, FIG. 2",inhibited; also recorded: could be prevented
CCCCCCC(C)(C)c1cc(O)c2c(c1)OC(C)(C)[C@@H]1CC=C(CO)C[C@@H]21 [HU-210],hypotensive effect in CB1 receptor deficient mice,[2]; CB1 receptor deficient mice,absent
C=C(C)C1CCC(C)=CC1c1c(OC)cc(C)cc1OC (stereo not shown) [O-1918],prevention of LPS-induced hypotension,"LPS-induced hypotension; 10 mg/kg O-1918, normal anesthetized mice, 100 mg/kg LPS",prevent the hypotension
same,inhibition of LPS-induced hypotension,"LPS-induced hypotension; pretreatment 1 to 10 mg/kg O-1918, ICR mice, 100 ng/kg LPS i.v., FIG. 3",dose-dependently inhibited
same,inhibition of vasorelaxation caused by CGRP,[3]; 10 μM O-1918,did not inhibit the vasorelaxation
same,inhibition of vasorelaxation caused by carbachol,[3]; 10 μM O-1918,did not inhibit the vasorelaxation
same,effect on vascular tone,[3]; concentrations up to 30 μM,did not alter vascular tone
same,shift of dose-response curve to Abn-cbd,"[3]; preincubation with 1–10 μM O-1918, FIG. 4",progressively right-shifted; also recorded: concentration-dependent inhibition of the relaxing effect of Abn-cbd
same,antagonism of hypotensive effect of Abn-cbd,"ICR mice; 10 mg/kg O-1918, 10 min before 10 mg/kg Abn-cbd, FIG. 1A",the prolonged hypotensive phase of the effect of Abn-cbd was absent
same,effect on blood pressure of the antagonist alone,ICR mice; 10 mg/kg O-1918 injected alone,did not influence blood pressure
same,antagonism of hypotensive effect of HU-210 (CB1/CB2 agonist),ICR mice; FIG. 1B,did not antagonize the hypotensive effect of HU-210
same,inhibition of calcium-induced relaxation,[4],inhibited the calcium-induced relaxation
"C=C(C)[C@@H]1CCC(C)=C[C@H]1c1c(O)cc(O)cc1CCCCC [Abn-cbd, abnormal cannabidiol]",binding to CB1 receptor,[5],does not bind to CB1 receptors
same,effect on blood pressure,"[2]; normal rats and mice, CB1 knockout and CB1/CB2 double knockout mice",lower blood pressure
same,neurobehavioral effects,rats and mice,does not elicit cannabinoid-like neurobehavioral effects
same,vasodilator response in presence of L-NAME and indomethacin,mesenteric arteries [6]; 100 μM L-NAME and 10 μM indomethacin,remains unchanged
same,vasodilation in presence of capsazepine,"mesenteric arteries [6]; bolus injection of 4 mg Abn-cbd, 5 μM capsazepine",elicited the same long lasting vasodilation
same,type of agonism in vasorelaxation,[3],full agonist
same,EC50,"[3]; Abn-cbd alone, read-out: vasorelaxation EC50",3.3 ± 0.5 µM
same,EC50,"[3]; in the presence of 10 μM O-1918, read-out: vasorelaxation EC50 in the presence of O-1918",26 ± 10 µM
same,effect on blood pressure,ICR mice; intravenous injection of 10 mg/kg Abn-cbd,"transient drop in blood pressure followed by a brief increase and then a more prolonged, significant decrease in pressure"
same,dilation of isolated mesenteric arteries,mesenteric arteries [1],dilate isolated mesenteric arteries
